Experimental data: ChEMBL document CHEMBL1201862, “PubChem BioAssay data set” (2004)
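Where inhibition never reached the appropriate level, the endpoint shown equals the highest concentration tested. Otherwise, values were interpolated linearly from a five-concentration, 48-hour dose response in 96-well plates. GI50 is the concentration that inhibits growth by half.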 The source made the active and inactive calls. No stated cut-off is given here; in the data, active = GI50 up to about 1.1 µM and inactive = higher. Non-standard residues stand in square brackets, D forms with d. Residues, ends and D or L forms follow the SMILES beside them. ξ: configuration not given here. *: point of attachment. Cbz = O=C(OCc1ccccc1)*; ξK = NCCCCC(N)C(=O)O

What was measured:
Experiment in all cases: DTP human tumour cell line panel, 48 h
T47D = system: T47D
CCRF-CEM = system: CCRF-CEM
KM12 = system: KM12
A498 = system: A498
MOLT-4 = system: MOLT-4
MDA-MB-435 = system: MDA-MB-435
TK-10 = system: TK-10
MCF7 = system: MCF7
HOP-62 = system: HOP-62
SR = system: SR
OVCAR-8 = system: OVCAR-8
OVCAR-4 = system: OVCAR-4
HCT-116 = system: HCT-116
U-251 = system: U-251
SNB-19 = system: SNB-19
SN12C = system: SN12C
HOP-92 = system: HOP-92
HT-29 = system: HT-29
786-0 = system: 786-0
MDA-MB-231 = system: MDA-MB-231

Compound	GI50 (T47D)	GI50 (CCRF-CEM)	GI50 (KM12)	GI50 (A498)	GI50 (MOLT-4)	GI50 (MDA-MB-435)	GI50 (TK-10)	GI50 (MCF7)	GI50 (HOP-62)	GI50 (SR)	GI50 (OVCAR-8)	GI50 (OVCAR-4)	GI50 (HCT-116)	GI50 (U-251)	GI50 (SNB-19)	GI50 (SN12C)	GI50 (HOP-92)	GI50 (HT-29)	GI50 (786-0)	GI50 (MDA-MB-231)
C/C(=N\NC(=S)Nc1ccc([N+](=O)[O-])cc1)c1nc2cccnc2[nH]1	0.693 µM (active)	0.381 µM (active)	0.873 µM (active)	2.67 µM (inactive)	0.377 µM (active)	1.34 µM (inactive)	0.327 µM (active)	0.611 µM (active)	1.07 µM (active)	0.388 µM (active)	0.348 µM (active)	0.583 µM (active)	0.515 µM (active)	0.251 µM (active)	0.824 µM (active)	1.65 µM (inactive)	1.51 µM (inactive)	0.615 µM (active)	0.748 µM (active)	1.31 µM (inactive)
CNc1ccc([S+]([O-])Nc2ccc(OC)cc2)cc1 (stereo unspecified)	31.8 µM (inactive)	46.5 µM (inactive)	3.86 µM (inactive)	> 100 µM (inactive)	51.8 µM (inactive)	14.2 µM (inactive)	> 100 µM (inactive)	79.6 µM (inactive)	> 100 µM (inactive)	> 100 µM (inactive)	86.3 µM (inactive)	> 100 µM (inactive)	66.8 µM (inactive)	43.4 µM (inactive)	> 100 µM (inactive)	> 100 µM (inactive)	> 100 µM (inactive)	33.7 µM (inactive)	74.8 µM (inactive)	17.1 µM (inactive)
Nc1cc2c3c(cccc3c1)NC2=O	28 µM (inactive)	8.05 µM (inactive)	> 100 µM (inactive)	> 100 µM (inactive)	24 µM (inactive)	> 100 µM (inactive)	> 100 µM (inactive)	27.9 µM (inactive)	22.1 µM (inactive)	> 100 µM (inactive)	> 100 µM (inactive)	> 100 µM (inactive)	> 100 µM (inactive)	31.8 µM (inactive)	84.9 µM (inactive)	95.1 µM (inactive)	> 100 µM (inactive)	> 100 µM (inactive)	> 100 µM (inactive)	70.3 µM (inactive)
N#CCCC(CC#N)N1CCN(CCO)CC1 (stereo unspecified)	> 100 µM (inactive)	> 100 µM (inactive)	> 100 µM (inactive)	> 100 µM (inactive)	> 100 µM (inactive)	> 100 µM (inactive)	> 100 µM (inactive)	> 100 µM (inactive)	> 100 µM (inactive)	> 100 µM (inactive)	> 100 µM (inactive)	> 100 µM (inactive)	> 100 µM (inactive)	> 100 µM (inactive)	> 100 µM (inactive)	> 100 µM (inactive)	> 100 µM (inactive)	> 100 µM (inactive)	> 100 µM (inactive)	> 100 µM (inactive)
O=C1C(c2c(O)[nH]c3ccc(Br)cc23)=Nc2ccccc21	8.63 µM (inactive)	22.7 µM (inactive)	2.92 µM (inactive)	3.3 µM (inactive)	18.2 µM (inactive)	6.9 µM (inactive)	13.4 µM (inactive)	1.76 µM (inactive)	12.4 µM (inactive)	6.73 µM (inactive)	6.78 µM (inactive)	9.04 µM (inactive)	2.32 µM (inactive)	12.8 µM (inactive)	13.2 µM (inactive)	28 µM (inactive)	16.6 µM (inactive)	4.28 µM (inactive)	2.13 µM (inactive)	15 µM (inactive)
COC12c3ccccc3-c3ccccc3C1[C@@H](C(=O)O)[C@H]2C(=O)O (stereo partly specified)	> 10 µM (inactive)	> 10 µM (inactive)	> 10 µM (inactive)	> 10 µM (inactive)	> 10 µM (inactive)	> 10 µM (inactive)	> 10 µM (inactive)	> 10 µM (inactive)	> 10 µM (inactive)	> 10 µM (inactive)	> 10 µM (inactive)	> 10 µM (inactive)	–	> 10 µM (inactive)	> 10 µM (inactive)	> 10 µM (inactive)	> 10 µM (inactive)	> 10 µM (inactive)	> 10 µM (inactive)	> 10 µM (inactive)
NCCCCC(NC(=O)OCc1ccccc1)C(=O)NCC(N)=O (stereo unspecified) (Cbz-[ξK]-Gly-NH2)	> 100 µM (inactive)	> 100 µM (inactive)	> 100 µM (inactive)	> 100 µM (inactive)	> 100 µM (inactive)	> 100 µM (inactive)	–	> 100 µM (inactive)	> 100 µM (inactive)	> 100 µM (inactive)	> 100 µM (inactive)	> 100 µM (inactive)	> 100 µM (inactive)	> 100 µM (inactive)	> 100 µM (inactive)	> 100 µM (inactive)	> 100 µM (inactive)	> 100 µM (inactive)	> 100 µM (inactive)	> 100 µM (inactive)
CCOC(=O)c1nc2c3c(ncn2n1)Oc1c(c(-c2ccccc2)nn1-c1ccccc1)C3c1ccc(Cl)cc1 (stereo unspecified)	> 100 µM (inactive)	> 100 µM (inactive)	15.1 µM (inactive)	> 100 µM (inactive)	–	> 100 µM (inactive)	> 100 µM (inactive)	> 100 µM (inactive)	> 100 µM (inactive)	> 100 µM (inactive)	> 100 µM (inactive)	> 100 µM (inactive)	> 100 µM (inactive)	> 100 µM (inactive)	> 100 µM (inactive)	> 100 µM (inactive)	> 100 µM (inactive)	> 100 µM (inactive)	> 100 µM (inactive)	> 100 µM (inactive)
CC(=O)c1ccc(/N=N/N2CCCC2)cc1	> 100 µM (inactive)	> 100 µM (inactive)	> 100 µM (inactive)	15.9 µM (inactive)	> 100 µM (inactive)	> 100 µM (inactive)	> 100 µM (inactive)	> 100 µM (inactive)	> 100 µM (inactive)	> 100 µM (inactive)	> 100 µM (inactive)	> 100 µM (inactive)	> 100 µM (inactive)	> 100 µM (inactive)	> 100 µM (inactive)	> 100 µM (inactive)	> 100 µM (inactive)	–	> 100 µM (inactive)	> 100 µM (inactive)
C=C1C(O)C[C@H](OC(C)=O)[C@]2(C)C1C(OC(C)=O)[C@]1(C(C)(C)O)CC(O)C(C)=C1[C@@H](OC(=O)c1ccccc1)C2OC(C)=O (stereo partly specified)	> 10 µM (inactive)	> 10 µM (inactive)	> 10 µM (inactive)	> 10 µM (inactive)	> 10 µM (inactive)	> 10 µM (inactive)	> 10 µM (inactive)	> 10 µM (inactive)	–	> 10 µM (inactive)	> 10 µM (inactive)	> 10 µM (inactive)	> 10 µM (inactive)	> 10 µM (inactive)	> 10 µM (inactive)	> 10 µM (inactive)	> 10 µM (inactive)	> 10 µM (inactive)	> 10 µM (inactive)	> 10 µM (inactive)
CC(C)OC(=O)[C@H]1ON2O[C@H](O[C@@H]3CCCC[C@H]3c3ccccc3)C([Si](C)(C)c3ccccc3)[C@H]3OC(=O)[C@@H]1C32 (stereo partly specified)	87.5 µM (inactive)	94 µM (inactive)	> 100 µM (inactive)	> 100 µM (inactive)	18.7 µM (inactive)	> 100 µM (inactive)	> 100 µM (inactive)	30.1 µM (inactive)	> 100 µM (inactive)	21.2 µM (inactive)	> 100 µM (inactive)	–	> 100 µM (inactive)	> 100 µM (inactive)	> 100 µM (inactive)	> 100 µM (inactive)	> 100 µM (inactive)	> 100 µM (inactive)	> 100 µM (inactive)	> 100 µM (inactive)
Cc1ccccc1/N=N/c1ccc(N/N=C2/CCCNC2=O)c(C)c1	33 µM (inactive)	9.46 µM (inactive)	> 100 µM (inactive)	> 100 µM (inactive)	34.6 µM (inactive)	> 100 µM (inactive)	> 100 µM (inactive)	64.1 µM (inactive)	> 100 µM (inactive)	36.1 µM (inactive)	–	66.8 µM (inactive)	> 100 µM (inactive)	> 100 µM (inactive)	> 100 µM (inactive)	> 100 µM (inactive)	> 100 µM (inactive)	> 100 µM (inactive)	> 100 µM (inactive)	> 100 µM (inactive)
C=C(C)C(CC=C(C)C)CC12CC(CC=C(C)C)C(C)(C)C(CC=C(C)C)(C(=O)C(Cc3ccc(O)c(O)c3)=C1O)C2=O (stereo unspecified)	> 100 µM (inactive)	59.6 µM (inactive)	> 100 µM (inactive)	74 µM (inactive)	50.6 µM (inactive)	> 100 µM (inactive)	> 100 µM (inactive)	> 100 µM (inactive)	> 100 µM (inactive)	> 100 µM (inactive)	> 100 µM (inactive)	> 100 µM (inactive)	> 100 µM (inactive)	> 100 µM (inactive)	> 100 µM (inactive)	–	> 100 µM (inactive)	> 100 µM (inactive)	> 100 µM (inactive)	> 100 µM (inactive)
O=C1OCC2=Nc3cccc4cccc(c34)N12	> 100 µM (inactive)	49.8 µM (inactive)	> 100 µM (inactive)	–	> 100 µM (inactive)	> 100 µM (inactive)	> 100 µM (inactive)	> 100 µM (inactive)	> 100 µM (inactive)	> 100 µM (inactive)	> 100 µM (inactive)	> 100 µM (inactive)	> 100 µM (inactive)	> 100 µM (inactive)	> 100 µM (inactive)	> 100 µM (inactive)	< 0.01 µM (active)	> 100 µM (inactive)	> 100 µM (inactive)	> 100 µM (inactive)
